Results as given in US6730666B1, “Pharmaceutical compositions comprising porphyrins and some novel porphyrin derivatives” (Yeda Research and Development Co. Ltd., priority 1998, dated 2004).
Where two headings read alike, the source gives them in different places.

Experiments:
[1] = target: T1, FGFR-1 alkaline phosphatase fusion protein (FRAP) (Mus musculus, UniProt P16092); assay: Binding of soluble FGFR-1 alkaline phosphatase fusion protein (FRAP) to bFGF immobilized on heparin (Screen AP assay)
T1 construct: soluble FGFR-1 ectodomain alkaline phosphatase fusion protein (FRAP); made in house; host or cells: NIH 3T3 cells (conditioned medium)
T1 sequence (P16092 22-376 limits assumed): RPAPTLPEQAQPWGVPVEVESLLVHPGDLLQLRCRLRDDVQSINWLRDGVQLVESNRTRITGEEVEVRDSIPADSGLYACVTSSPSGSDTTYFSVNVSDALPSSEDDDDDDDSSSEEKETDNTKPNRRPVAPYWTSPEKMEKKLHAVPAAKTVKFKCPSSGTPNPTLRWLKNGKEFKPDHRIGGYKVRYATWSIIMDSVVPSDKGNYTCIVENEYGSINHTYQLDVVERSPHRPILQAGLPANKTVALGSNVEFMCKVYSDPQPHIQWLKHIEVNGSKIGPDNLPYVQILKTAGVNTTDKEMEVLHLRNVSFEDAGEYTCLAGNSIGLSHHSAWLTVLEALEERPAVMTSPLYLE
Description: (ii) Binding of soluble FGFR-1 alkaline phosphatase fusion protein (FRAP) to immobilized bFGF. […] The end-point of the assay measured enzymatically the formation of FGF-receptor complexes quantitated by the specifically associated alkaline phosphatase (AP) catalyzed chromogenic product.
Subsequently, 200 μl of FRAP condition medium and porphyrin/corrole compound were added and incubated together for 2 h.
In order to identify inhibitors of FGF-FGFR interactions, an assay for testing FGFR-ligand binding was developed. The system is composed of bFGF bound to a heparin matrix to which soluble FGFR-1 ectodomain alkaline phosphatase fusion protein (FRAP) and the screened compounds are added (see Methods, section (ii)).

[2] = test system: microvascular tubules sprouting from rat aorta sections; assay: Rat aorta in vitro angiogenesis assay (collagen gel, bFGF-induced); format: cell-based
Description: (vi) Rat aorta in vitro angiogenesis assay. Rings of rat aorta sections were immobilized in a three-dimensional collagen gel, in the presence of serum free growth medium (D/MEM) (Nicosia & Ottinetti, 1990). Porphyrin or corrole compound and bFGF (2 ng/ml) were added to the growth medium twice a week when indicated. After 14 days the cultures were fixed, and the extent of microvascular endothelial tube outgrowth was measured under a light microscope (Miao et al., 1997).
The effect of P1 was further examined in a biological assay for angiogenesis in vitro. Angiogenic vascularization is a process in which bFGF is known to play a pivotal role (Folkman, 1989). To examine the inhibitory effects of the porphyrin on bFGF-promoted angiogenesis, we employed an in vitro angiogenic assay using rat aorta sections embedded in a collagen gel (Methods, section (vi)). The assay measures the extent of endothelial cell growth and microvascular tubules sprouting from the vessel tissue embedded in the gel. Basal tubule formation can be detected even when no additional factors are added.

[3] = target: T2, flt-1 VEGF receptor AP fusion protein (Homo sapiens, UniProt P17948); assay: Binding of soluble VEGF receptor flt-1-AP fusion protein to immobilized VEGF; details: FIG. 10B; read-out: IC50, inhibition of flt-1-AP binding to immobilized VEGF
T2 construct: soluble VEGF receptor flt-1-AP fusion protein; made in house
Description: ix) Binding of soluble VEGF receptor alkaline phosphatase fusion protein to immobilized VEGF. The flt-1 VEGF receptor was expressed as a fusion protein with AP as previously described (Roeckl et al, 1998) and tested for its binding capacity to immobilized VEGF as described in method (ii) above for the FGF receptor.

[4] = test system: NIH 3T3 cells expressing signal peptide bFGF; assay: Tumor formation induced by signal peptide bFGF expressing NIH 3T3 cells in nude mice; format: in vivo, Balb/C nude mice; details: free P1, 25 μg/g of body mass IP twice a week, after 4 weeks
Description: (v) Inhibition by porphyrins of tumor formation induced by signal peptide bFGF expressing cells NIH 3T3 cells expressing signal peptide bFGF were injected subcutaneously to Balb/C nude mice as described (Yayon and Klagsbrun, 1990). Porphyrin/corrole compound at 25 μg/g of body mass was injected IP (intraperitoneally) twice a week and after 4 weeks the tumor size was measured.
After establishing the ability of P1 to inhibit FGF biological activity in vitro, the capacity of P1 to inhibit bFGF-induced tumor growth and metastasis was evaluated in vivo. First, the inhibition of tumor growth induced by signal peptide bFGF in a nude mice model was measured (Methods, section (v)). Upon addition of a signal peptide residue to bFGF, the protein is capable of transforming NIH 3T3 cells which, when injected to nude mice, grow and form a tumor Rayon & Klagsbrun, 1990). NIH 3T3 cells expressing signal peptide bFGF were injected subcutaneously to Balb/C nude mice, and P1 either free or liposome incorporated (as described by Jori and Reddi, 1993) (25 μg/g of body mass) were given twice a week by intraperitoneal injection.

FGFR-3 = target: T3, FGFR-3 (Homo sapiens, UniProt P22607); assay: Binding of 125I-FGF9 to CHO cells transfected with FGFR-3; details: FIG. 12
T3 construct: expressed in transfected cells; host or cells: CHO cells (mutant 745)
Description: CHO mutant cells-745 expressing FGFR-3 were incubated for 90 min at 4° C. in the presence of increasing concentrations of the porphyrins, with 1 μg/ml of heparin and ^125I-FGF9 (2 ng/ml). The binding medium was discarded and the cells were washed with ice cold DMEM/BSA. To determine receptor binding of ^125I-FGF9, the cells were incubated in cold PBS (pH 4) containing 1.6M NaCl and 25 mM HEPES, and the cell extract was counted in a γ-counter.
(iv) Binding of ^125I-bFGF and ^125I-FGF9 to cells. Confluent cultures of CHO cells expressing FGFR-1(Yayon et al, 1991) or FGFR-3 (Hecht et al, 1995) in 24-well plates (Falcon) were precooled and washed twice with cold DMEM supplemented with 20 mM Hepes (pH 7.5) and 0.1% bovine serum albumin (DMEM/BSA). They were then incubated for 1.5 h at 4° C. with ^125I-bFGF (2 ng/ml) and increasing concentrations of porphyrin/corrole compound. The binding medium was discarded and the cells were washed once with ice-cold DMEM/BSA and twice with cold PBS (pH 7.5) containing 1.6M NaCl. […] Non-specific binding was determined in the presence of a 100-fold excess of unlabeled bFGF.

T3 sequence (P22607 23-806, species assumed): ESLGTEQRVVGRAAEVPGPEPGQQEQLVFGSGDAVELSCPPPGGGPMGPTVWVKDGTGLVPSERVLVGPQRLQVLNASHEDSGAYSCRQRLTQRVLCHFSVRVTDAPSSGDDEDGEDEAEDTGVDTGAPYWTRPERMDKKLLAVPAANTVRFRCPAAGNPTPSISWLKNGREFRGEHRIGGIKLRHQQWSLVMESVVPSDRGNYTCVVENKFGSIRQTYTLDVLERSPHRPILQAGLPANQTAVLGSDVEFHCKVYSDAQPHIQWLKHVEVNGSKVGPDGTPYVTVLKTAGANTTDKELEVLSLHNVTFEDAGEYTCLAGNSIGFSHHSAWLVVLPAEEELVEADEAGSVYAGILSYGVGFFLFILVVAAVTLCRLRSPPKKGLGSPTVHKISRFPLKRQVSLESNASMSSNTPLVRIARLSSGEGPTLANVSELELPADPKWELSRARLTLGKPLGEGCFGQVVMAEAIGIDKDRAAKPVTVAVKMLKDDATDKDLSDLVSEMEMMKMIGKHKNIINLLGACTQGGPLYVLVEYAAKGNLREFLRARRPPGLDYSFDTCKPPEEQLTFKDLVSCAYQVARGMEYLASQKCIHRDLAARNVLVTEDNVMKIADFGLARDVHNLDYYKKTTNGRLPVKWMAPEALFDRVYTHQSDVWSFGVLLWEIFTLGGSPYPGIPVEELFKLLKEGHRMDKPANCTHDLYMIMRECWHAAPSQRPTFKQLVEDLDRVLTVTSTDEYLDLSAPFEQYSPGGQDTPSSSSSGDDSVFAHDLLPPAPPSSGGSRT
T2 sequence (P17948 27-758 limits assumed): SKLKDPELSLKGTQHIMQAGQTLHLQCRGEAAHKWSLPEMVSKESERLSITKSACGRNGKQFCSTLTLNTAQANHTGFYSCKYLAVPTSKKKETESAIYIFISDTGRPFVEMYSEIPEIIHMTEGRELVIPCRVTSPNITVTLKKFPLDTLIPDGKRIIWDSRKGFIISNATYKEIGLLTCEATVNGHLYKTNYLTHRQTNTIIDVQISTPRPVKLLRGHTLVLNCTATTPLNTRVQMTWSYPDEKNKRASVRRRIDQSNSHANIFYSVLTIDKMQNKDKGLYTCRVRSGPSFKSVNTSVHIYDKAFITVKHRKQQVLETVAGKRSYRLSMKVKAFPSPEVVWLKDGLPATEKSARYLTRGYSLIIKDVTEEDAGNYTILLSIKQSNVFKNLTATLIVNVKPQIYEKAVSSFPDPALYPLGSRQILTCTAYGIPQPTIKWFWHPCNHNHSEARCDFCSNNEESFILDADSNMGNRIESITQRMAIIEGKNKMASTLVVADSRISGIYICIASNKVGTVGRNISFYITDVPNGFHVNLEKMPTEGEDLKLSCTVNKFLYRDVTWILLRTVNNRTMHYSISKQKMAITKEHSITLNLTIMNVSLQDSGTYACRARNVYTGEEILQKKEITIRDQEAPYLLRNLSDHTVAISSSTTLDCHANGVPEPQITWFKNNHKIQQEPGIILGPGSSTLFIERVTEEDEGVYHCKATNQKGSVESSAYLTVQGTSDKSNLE

| IC50, FGF-9 binding in the cellular receptor system (FGFR-3) [µg/mL] | SMILES | IC50 ([1]; FIG. 1A, read-out: IC50, inhibition of FRAP binding to bFGF immobilized on heparin matrix (converted)) [nM] | IC50 ([1]; IC50, inhibition of binding of soluble FGFR-1 to bFGF immobilized on heparin, text of detailed description) [nM] | IC50 ([1]; binding of FGF to FGFR, Methods section (ii), read-out: Screen AP assay (IC50)) [nM] | Effect on bFGF-induced endothelial cell growth ([2]; 10 μM, with 2 ng/ml bFGF) | Effect on microvascular tubules ([2]; 100 μl P1, with 2 ng/ml bFGF) | IC50 [3] [nM] | Inhibition of tumor formation in nude mice, in words [4] |
| --- | --- | --- | --- | --- | --- | --- | --- | --- |
| – | C[n+]1ccc(-c2c3nc(c(-c4cc[n+](C)cc4)c4ccc([nH]4)c(-c4cc[n+](C)cc4)c4nc(c(-c5cc[n+](C)cc5)c5ccc2[nH]5)C=C4)C=C3)cc1 [Compound P1, 5,10,15,20-Tetrakis(N-methyl-4-pyridylium)-21H,23H-porphine tetra-p-tosylate] | 133 | 90000 | 75 | dramatically reduced the extent of endothelial cell growth | complete inhibition of microvascular tubules | ~40 | clear inhibition of tumor formation |
| 0.1 | C[n+]1ccc(-c2c3nc(c(-c4cc[n+](C)cc4)c4ccc([nH]4)c(-c4c(F)c(F)c(F)c(F)c4F)c4nc(c(-c5cc[n+](C)cc5)c5ccc2[nH]5)C=C4)C=C3)cc1.[I-].[I-].[I-] [Compound P16, 5-Pentafluorophenyl-10,15,20-tris(N-methyl-4-pyridylium)-21H,23H-porphine triiodide] | – | – | – | – | – | – | – |
